Key:
[1] = target: T1, CYP3A4 (Homo sapiens, UniProt P08684); assay: Luminescent CYP3A4 P450-Glo assay; format: in vitro ADME; details: 1 µM
T1 construct: purchased Promega (Madison, WI, USA)

[2] = tested on: tactile allodynia in OXPT-treated mice; assay: Oxaliplatin (OXPT)-induced peripheral neuropathy, von Frey test; format: in vivo
Experimental: In order to investigate the analgesic activity of the most promising compound 30 in a neuropathic pain model, we tested it in oxaliplatin (OXPT)-induced peripheral neuropathy, in which mechanical and cold allodynia result from impaired function of ion channels, among others. The early phase of neuropathic pain appears hours after OXPT administration, while the late phase develops days after OXPT. Thus, we tested compound 30 3 h and 7 days after the injection of OXPT. We investigated the influence of compound 30 on tactile allodynia using the von Frey method. Three hours after the administration of OXPT we observed a significant decrease in the mean value of force that caused paw withdrawal reaction (1.89 ± 0.04 g) (64.2% of the baseline) compared to nontreated animals (2.94 ± 0.06 g) (the baseline). Seven days after OXPT administration, the pain threshold was 2.00 ± 0.03 (68.0% of the baseline). […] In the late phase, the values of pain threshold were as follows 2.18 ± 0.06 g, 2.60 ± 0.08 g, and 2.91 ± 0.05 g, which correspond to 74.1%, 88.4%, and 98.9% of the baseline value.
The experimental groups consisted of 6–12 adult male Albino Swiss mice (CD-1, 18–25 g). Each animal was tested only once. Immediately after the assay, the animals were sacrificed by cervical dislocation. Behavioral measurements were observed by trained observers. The in vivo antinociceptive assays were in accordance with Polish regulations and European Union Directive of 22 September 2010 (2010/63/EU). All procedures were carried out according to the rules of the International Council on Laboratory Animal Science (ICLAS) and were approved by the Local Ethical Committee in Cracow, Poland (approval No 104/2015, 111/2016, and 179/2017). The tested substances were suspended in 1% aqueous solution of Tween-80 and were injected i.p. 30 min prior to the test. Control group animals (negative control) were administered with an appropriate amount of vehicle (Tween-80, 1% aqueous solution, i.p.) 30 min prior to the test.
The experimental in vivo procedures were previously reported for the formalin test; compounds 4 and 30 were tested in three doses—40, 80, 120 mg/kg (4), and 20, 40, 80 mg/kg (30). Before formalin application, different groups of animals were injected i.p. with vehicle (10 mL/kg, negative control). The in vivo procedure for the model of capsaicin-induced nociception was previously reported; the animals were pretreated with vehicle (10 mL/kg, negative control) and the dose–response of investigated compounds was evaluated at 40, 80, 120 mg/kg (4), and 20, 40, 80 mg/kg (30). The in vivo procedure for the model of OXPT-induced peripheral neuropathy was previously reported; the mice with developed tactile allodynia were pretreated i.p. with test compound 30 (20, 40, and 80 mg/kg) and vehicle.
Data are presented as means ± standard error of the mean (SEM). The GraphPad Prism Software (v.5) was used to analyze the vast majority of data. Statistically significant differences between groups were calculated using one-way analysis of variance (ANOVA) and the post hoc Dunnett’s multiple comparison test or two-way analysis of variance (ANOVA). The criterion for significance was set at p < 0.05.

[3] = early phase (3 h after OXPT), 20 mg/kg i.p.
[4] = early phase (3 h after OXPT), 40 mg/kg i.p.
[5] = early phase (3 h after OXPT), 80 mg/kg i.p.
[6] = late phase (7 days after OXPT), 20 mg/kg i.p.
[7] = late phase (7 days after OXPT), 40 mg/kg i.p.
[8] = late phase (7 days after OXPT), 80 mg/kg i.p.

T1 sequence (P08684 whole entry): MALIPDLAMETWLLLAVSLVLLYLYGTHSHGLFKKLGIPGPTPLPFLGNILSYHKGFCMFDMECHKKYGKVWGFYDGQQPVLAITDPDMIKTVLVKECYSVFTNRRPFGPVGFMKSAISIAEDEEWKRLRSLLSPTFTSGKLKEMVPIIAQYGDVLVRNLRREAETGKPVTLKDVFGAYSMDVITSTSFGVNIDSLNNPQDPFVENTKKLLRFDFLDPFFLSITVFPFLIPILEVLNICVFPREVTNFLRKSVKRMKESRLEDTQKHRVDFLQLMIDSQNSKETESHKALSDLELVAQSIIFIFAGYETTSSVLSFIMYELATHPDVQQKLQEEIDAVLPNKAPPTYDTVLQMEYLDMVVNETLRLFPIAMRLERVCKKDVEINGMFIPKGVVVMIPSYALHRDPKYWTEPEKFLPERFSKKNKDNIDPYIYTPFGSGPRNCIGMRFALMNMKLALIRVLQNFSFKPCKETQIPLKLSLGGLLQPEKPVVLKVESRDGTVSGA

In the case of `O=C(NCCc1cccc(OC(F)(F)F)c1)C(c1ccccc1)N1C(=O)CCC1=O` (stereo not shown) [Compound 30, 2-(2,5-Dioxopyrrolidin-1-yl)-2-phenyl-N-(3-(trifluoromethoxy)phenethyl)acetamide], the “effect on CYP3A4 activity” value [1] was “slightly inhibited CYP3A4 activity”, the “pain sensitivity threshold (von Frey, force causing paw withdrawal)” value (“pain sensitivity threshold” below) [2, 3] was 2.26 ± 0.08 g and the “pain threshold, % of the baseline value” [2, 3] was 76.8%. The “pain sensitivity threshold” value [2, 4] was 2.49 ± 0.05 g, the “pain threshold, % of the baseline value” [2, 4] was 84.7% and the “pain sensitivity threshold” value [2, 5] was 2.97 ± 0.05 g. The “pain threshold, % of the baseline value” [2, 5] was 101.0%, the “pain threshold (von Frey)” value [2, 6] was 2.18 ± 0.06 g and the “pain threshold, % of the baseline value” [2, 6] was 74.1%. For the same molecule, the “pain threshold (von Frey)” value [2, 7] was 2.60 ± 0.08 g, the “pain threshold, % of the baseline value” [2, 7] was 88.4% and the “pain threshold (von Frey)” value [2, 8] was 2.91 ± 0.05 g. For the same molecule, the “pain threshold, % of the baseline value” [2, 8] was 98.9%.
